Reference: patent US20240228506A1, “RIPK1 INHIBITORS AND METHODS OF USE” (Merck Sharp & Dohme LLC, priority 2021, published 2024)

Molecular target: T1, GST-RIPK1 (recombinant GST-RIPK1 kinase domain (residues 1-327)) (Homo sapiens, UniProt Q13546)
T1 construct: recombinant GST-RIPK1 kinase domain (residues 1-327) enzyme; made in house; host or cells: baculovirus-transfected Sf21 insect cells
T1 sequence (Q13546 1-327): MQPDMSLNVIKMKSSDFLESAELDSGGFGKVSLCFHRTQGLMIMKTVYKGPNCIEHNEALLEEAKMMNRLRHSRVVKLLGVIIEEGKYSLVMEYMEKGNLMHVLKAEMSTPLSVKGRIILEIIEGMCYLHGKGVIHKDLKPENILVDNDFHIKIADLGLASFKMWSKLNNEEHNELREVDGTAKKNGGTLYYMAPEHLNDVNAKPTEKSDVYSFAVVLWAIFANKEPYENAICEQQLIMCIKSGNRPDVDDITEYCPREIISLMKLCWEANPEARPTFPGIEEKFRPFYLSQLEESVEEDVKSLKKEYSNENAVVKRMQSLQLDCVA
Assay: RIPK1-ADP-Glo enzymatic assay
Type: biochemical
Settings: 25 nM GST-RIPK1, 300 μM ATP, 3 μM dephosphorylated-MBP; 30 minutes pre-incubation, 150 minutes reaction; ten-point titration
Summary of the method: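 Ten-point 1:3 titrations from 100000 nM, 1% DMSO, were preincubated 30 min with 25 nM GST-RIPK1 (1-327) before starting with 300 μM ATP plus 3 μM dephosphorylated MBP; 150 min reaction. ADP-Glo luminescence measured ATP-to-ADP conversion; EC50 by four-parameter sigmoidal regression.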

Row | IC50 | Structure (SMILES)
1 | 41 nM | COc1ccnc(C#Cc2cncc3c2O[C@H]2C[C@@H]3N(C(=O)C34CCC(C(F)(F)F)(CC3)C4)C2)c1 [Compound 2-69, ((2S,5S)-9-((4-methoxypyridin-2-yl)ethynyl)-2,3-dihydro-2,5-methanopyrido[3,4-f][1,4]oxazepin-4(5H)-yl)(4-(trifluoromethyl)bicyclo [2.2.1]heptan-1-yl)methanone]
2 | 72 nM | COc1ccccc1C#Cc1cncc2c1O[C@H]1C[C@@H]2N(C(=O)C23CCC(C(F)(F)F)(CC2)C3)C1 [Compound 2-70, ((2S,5S)-9-((2-methoxyphenyl)ethynyl)-2,3-dihydro-2,5-methanopyrido[3,4-f][1,4]oxazepin-4(5H)-yl)(4-(trifluoromethyl)bicyclo [2.2.1]heptan-1-yl)methanone]
3 | 89 nM | Cc1nnc(C#Cc2cncc3c2O[C@H]2C[C@@H]3N(C(=O)C(C)(C)C(F)F)C2)o1 [Compound 2-71, 3,3-Difluoro-2,2-dimethyl-1-((2S,5S)-9-((5-methyl-1,3,4-oxadiazol-2-yl)ethynyl)-2,3-dihydro-2,5-methanopyrido[3,4-f][1,4]oxazepin-4(5H)-yl)propan-1-one]
4 | 68 nM | CC(C)(C(=O)N1C[C@@H]2C[C@H]1c1cncc(C#Cc3ncco3)c1O2)C(F)F [Compound 2-72]
5 | 19 nM | CC(C)(C)c1ncc(C#Cc2cncc3c2O[C@H]2C[C@@H]3N(C(=O)C(C)(C)C(F)F)C2)cn1 [Compound 2-73, 1-((2S,5S)-9-((2-(tert-butyl)pyrimidin-5-yl)ethynyl)-2,3-dihydro-2,5-methanopyrido[3,4-f][1,4]oxazepin-4(5H)-yl)-3,3-difluoro-2,2-dimethylpropan-1-one]
6 | 18 nM | CC(C)Oc1ncc(C#Cc2cncc3c2O[C@H]2C[C@@H]3N(C(=O)C(C)(C)C(F)F)C2)cn1 [Compound 2-74, 3,3-difluoro-1-((2S,5S)-9-((2-isopropoxypyrimidin-5-yl)ethynyl)-2,3-dihydro-2,5-methanopyrido[3,4-f][1,4]oxazepin-4(5H)-yl)-2,2-dimethylpropan-1-one]
7 | 27 nM | CC(C)(C(=O)N1C[C@@H]2C[C@H]1c1cncc(C#Cc3cnc4ccnn4c3)c1O2)C(F)F [Compound 2-75, 3,3-difluoro-2,2-dimethyl-1-((2S,5S)-9-(pyrazolo[1,5-a]pyrimidin-6-ylethynyl)-2,3-dihydro-2,5-methanopyrido[3,4-f][1,4]oxazepin-4(5H)-yl)propan-1-one]
8 | 33 nM | Cc1ncc(C#Cc2cncc3c2O[C@H]2C[C@@H]3N(C(=O)C(C)(C)C(F)F)C2)cn1 [Compound 2-76, 3,3-difluoro-2,2-dimethyl-1-((2S,5S)-9-((2-methylpyrimidin-5-yl)ethynyl)-2,3-dihydro-2,5-methanopyrido[3,4-f][1,4]oxazepin-4(5H)-yl)propan-1-one]
9 | 49 nM | CC(C)(C(=O)N1C[C@@H]2C[C@H]1c1cncc(C#Cc3cnc(C(F)(F)F)nc3)c1O2)C(F)F [Compound 2-77, 3,3-difluoro-2,2-dimethyl-1-((2S,5S)-9-((2-(trifluoromethyl)pyrimidin-5-yl)ethynyl)-2,3-dihydro-2,5-methanopyrido[3,4-f][1,4]oxazepin-4(5H)-yl)propan-1-one]
10 | 19 nM | CC(C)(C(=O)N1C[C@@H]2C[C@H]1c1cncc(C#Cc3cnc(C#N)nc3)c1O2)C(F)F [Compound 2-78, 5-(((2S,5S)-4-(3,3-difluoro-2,2-dimethylpropanoyl)-2,3,4,5-tetrahydro-2,5-methanopyrido[3,4-f][1,4]oxazepin-9-yl)ethynyl)pyrimidine-2-carbonitrile]
11 | 72 nM | CC(C)(C(=O)N1C[C@@H]2C[C@H]1c1cncc(C#Cc3cnc4ncnn4c3)c1O2)C(F)F [Compound 2-79, 1-((2S,5S)-9-([1,2,4]triazolo[1,5-a]pyrimidin-6-ylethynyl)-2,3-dihydro-2,5-methanopyrido[3,4-f][1,4]oxazepin-4(5H)-yl)-3,3-difluoro-2,2-dimethylpropan-1-one]
12 | 24 nM | CC(C)(C(=O)N1C[C@@H]2C[C@H]1c1cncc(C#Cc3cnc(C4CC4)nc3)c1O2)C(F)F [Compound 2-80, 1-((2S,5S)-9-((2-cyclopropylpyrimidin-5-yl)ethynyl)-2,3-dihydro-2,5-methanopyrido[3,4-f][1,4]oxazepin-4(5H)-yl)-3,3-difluoro-2,2-dimethylpropan-1-one]
13 | 22 nM | CC(C)(C(=O)N1C[C@@H]2C[C@H]1c1cncc(C#Cc3cnc4c(Cl)cnn4c3)c1O2)C(F)F [Compound 2-81, 1-((2S,5S)-9-((3-chloropyrazolo[1,5-a]pyrimidin-6-yl)ethynyl)-2,3-dihydro-2,5-methanopyrido[3,4-f][1,4]oxazepin-4(5H)-yl)-3,3-difluoro-2,2-dimethylpropan-1-one]
14 | 66 nM | Cc1ncccc1C#Cc1cncc2c1O[C@H]1C[C@@H]2N(C(=O)C(C)(C)C(F)F)C1 [Compound 2-82, 3,3-difluoro-2,2-dimethyl-1-((2S,5S)-9-((2-methylpyridin-3-yl)ethynyl)-2,3-dihydro-2,5-methanopyrido[3,4-f][1,4]oxazepin-4(5H)-yl)propan-1-one]
15 | 24 nM | CC(C)(C(=O)N1C[C@@H]2C[C@H]1c1cncc(C#Cc3ccc(C4CC4)nc3)c1O2)C(F)F [Compound 2-83, 1-((2S,5S)-9-((6-cyclopropylpyridin-3-yl)ethynyl)-2,3-dihydro-2,5-methanopyrido[3,4-f][1,4]oxazepin-4(5H)-yl)-3,3-difluoro-2,2-dimethylpropan-1-one]
16 | 26 nM | CC(C)(C(=O)N1C[C@@H]2C[C@H]1c1cncc(C#Cc3ccc(C(F)F)nc3)c1O2)C(F)F [Compound 2-84, 1-((2S,5S)-9-((6-(difluoromethyl)pyridin-3-yl)ethynyl)-2,3-dihydro-2,5-methanopyrido[3,4-f][1,4]oxazepin-4(5H)-yl)-3,3-difluoro-2,2-dimethylpropan-1-one]
17 | 38 nM | CC(C)(C(=O)N1C[C@@H]2C[C@H]1c1cncc(C#Cc3cncc(C#N)c3)c1O2)C(F)F [Compound 2-85, 5-(((2S,5S)-4-(3,3-difluoro-2,2-dimethylpropanoyl)-2,3,4,5-tetrahydro-2,5-methanopyrido[3,4-f][1,4]oxazepin-9-yl)ethynyl)nicotinonitrile]
18 | 31 nM | CC(C)(C(=O)N1C[C@@H]2C[C@H]1c1cncc(C#Cc3ccc(C(F)(F)F)nc3)c1O2)C(F)F [Compound 2-86, 3,3-difluoro-2,2-dimethyl-1-((2S,5S)-9-((6-(trifluoromethyl)pyridin-3-yl)ethynyl)-2,3-dihydro-2,5-methanopyrido[3,4-f][1,4]oxazepin-4(5H)-yl)propan-1-one]
19 | 32 nM | CC(C)(C(=O)N1C[C@@H]2C[C@H]1c1cncc(C#Cc3ccc(C#N)nc3)c1O2)C(F)F [Compound 2-87, 5-(((2S,5S)-4-(3,3-difluoro-2,2-dimethylpropanoyl)-2,3,4,5-tetrahydro-2,5-methanopyrido[3,4-f][1,4]oxazepin-9-yl)ethynyl)picolinonitrile]
20 | 35 nM | CC(C)(C(=O)N1C[C@@H]2C[C@H]1c1cncc(C#Cc3ccc(OC(F)F)nc3)c1O2)C(F)F [Compound 2-88, 1-((2S,5S)-9-((6-(difluoromethoxy)pyridin-3-yl)ethynyl)-2,3-dihydro-2,5-methanopyrido[3,4-f][1,4]oxazepin-4(5H)-yl)-3,3-difluoro-2,2-dimethylpropan-1-one]
21 | 34 nM | CC(C)(C(=O)N1C[C@@H]2C[C@H]1c1cncc(C#Cc3cncc(C(F)(F)F)c3)c1O2)C(F)F [Compound 2-89, 3,3-difluoro-2,2-dimethyl-1-((2S,5S)-9-((5-(trifluoromethyl)pyridin-3-yl)ethynyl)-2,3-dihydro-2,5-methanopyrido[3,4-f][1,4]oxazepin-4(5H)-yl)propan-1-one]
22 | 28 nM | CC(C)(C(=O)N1C[C@@H]2C[C@H]1c1cncc(C#Cc3cncc(Cl)c3)c1O2)C(F)F [Compound 2-90, 1-((2S,5S)-9-((5-chloropyridin-3-yl)ethynyl)-2,3-dihydro-2,5-methanopyrido[3,4-f][1,4]oxazepin-4(5H)-yl)-3,3-difluoro-2,2-dimethylpropan-1-one]
23 | 65 nM | Cc1ccc(C#Cc2cncc3c2O[C@H]2C[C@@H]3N(C(=O)C(C)(C)C(F)F)C2)c(C)n1 [Compound 2-91, 1-((2S,5S)-9-((2,6-dimethylpyridin-3-yl)ethynyl)-2,3-dihydro-2,5-methanopyrido[3,4-f][1,4]oxazepin-4(5H)-yl)-3,3-difluoro-2,2-dimethylpropan-1-one]
24 | 19 nM | COc1ccc(C#Cc2cncc3c2O[C@H]2C[C@@H]3N(C(=O)C(C)(C)C(F)F)C2)cn1 [Compound 2-92, 3,3-difluoro-1-((2S,5S)-9-((6-methoxypyridin-3-yl)ethynyl)-2,3-dihydro-2,5-methanopyrido[3,4-f][1,4]oxazepin-4(5H)-yl)-2,2-dimethylpropan-1-one]
25 | 58 nM | CC(C)(C(=O)N1C[C@@H]2C[C@H]1c1cncc(C#Cc3cnc4cncn4c3)c1O2)C(F)F [Compound 2-93, 3,3-difluoro-1-((2S,5S)-9-(imidazo[1,5-a]pyrimidin-3-ylethynyl)-2,3-dihydro-2,5-methanopyrido[3,4-f][1,4]oxazepin-4(5H)-yl)-2,2-dimethylpropan-1-one]
